The values that follow come from patent publication US5627177A, “Piperazine derivatives” (John Wyeth & Brother, Ltd., priority 1993, dated 1997).

The target of experiment [1] is T1, 5-HT1A receptor (Rattus norvegicus, UniProt P19327).
T1 sequence (P19327 1-422): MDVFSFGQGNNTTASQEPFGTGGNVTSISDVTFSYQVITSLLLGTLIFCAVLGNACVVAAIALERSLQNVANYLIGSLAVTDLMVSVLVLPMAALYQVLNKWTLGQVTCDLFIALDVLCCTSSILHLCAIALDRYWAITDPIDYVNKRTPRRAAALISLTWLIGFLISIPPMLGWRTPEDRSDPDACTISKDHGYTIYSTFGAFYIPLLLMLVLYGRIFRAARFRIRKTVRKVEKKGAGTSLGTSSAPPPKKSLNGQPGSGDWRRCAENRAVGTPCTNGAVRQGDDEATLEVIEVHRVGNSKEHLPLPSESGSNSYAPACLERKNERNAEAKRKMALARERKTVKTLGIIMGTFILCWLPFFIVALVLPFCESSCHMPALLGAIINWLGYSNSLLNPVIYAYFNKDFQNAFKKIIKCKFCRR
Nature of the experiment: 5-HT1A receptor antagonism: antagonism of 8-hydroxy-2-(di-n-propylamino)-tetralin (8-OH DPAT) syndrome in the rat. On the set-up: syndrome in the rat; from tissue; host or cells: whole living rat (in vivo). The settings on record: sc, antagonism of 8-OH DPAT syndrome, read-out: median effective dose. The experiment is classed as in vivo. On the procedure: The compounds are also tested for 5-HT1A receptor antagonism activity in a test involving the antagonism of 8-hydroxy-2-(di-n-propylamino)-tetralin (8-OH DPAT) syndrome in the rat.

The target in experiment [2] is T1, 5-HT1A receptor. The experiment in a line: 5-HT1A receptor binding activity in rat hippocampal membrane homogenate. Also noted: from tissue. How it is done:
The compounds of the invention are tested for 5-HT1A receptor binding activity in rat hippocampal membrane homogenate by the method of B. S. Alexander and M. D. Wood, J Pharm Pharmacol, 1988, 40, 888-891.

The term IC50 denotes the concentration needed to halve the response being measured. High values mean weaker potency, low ones greater potency. Regarding `COC(=O)c1cc2c(N3CCN(CCC(C(=O)N4CCCCCC4)c4ccccc4)CC3)cccc2[nH]1` (racemic) [Example 5, 4-[4-(4-Azepan-1-yl-4-oxo-3-phenylbutyl)piperazin-1-yl]-1H-indole-2-carboxylic acid methyl ester], the ED50 at 5-HT1A receptor [1] amounted to 0.3 mg/kg. For the same molecule, at 5-HT1A receptor [2], the IC50 was determined as 720 pM.
